Two molecules from publication PMC8899577, “Targeting the anti-apoptotic Bcl-2 family proteins: machine learning virtual screening and biological evaluation of new small molecules” (Theranostics, 2022) can be followed below.

The Kd is the equilibrium constant for the complex coming apart.

One data set concerns the target Bcl-2 (Homo sapiens, UniProt P10415). Nature of the data set: SPR binding to immobilized Bcl-2. The following applies: for Kd: SPR, 25 °C, 2-site fit, highest affinity site. Here is the method: FastStep experiments were performed with a SensiQ Pioneer apparatus. Bcl-2 immobilization on COOH5 sensorchips was carried out essentially as previously reported, [40]. All the experiments were carried out at 25 °C in degassed HEPES 20 mM, pH 7.4, NaCl 150 mM, 0.005% surfactant P20 + 2% DMSO (HBSP2%D). […] Each sensorgram is the average of at least three experiments. The decrease in Response Units (RU) after 165 s indicates analyte dissociation from the immobilized Bcl-2 upon HSBP2%D buffer injection. Control SPR experiments were carried out measuring sensorgrams on Bcl-xL and Mcl-1 (ligands) immobilized on COOH5 sensorchips as previously reported at 25 °C in degassed HBSP2%D buffer. […] Each sensorgram is the average of at least three experiments. The decrease in RU after 180 s indicates analyte dissociation from the immobilized ligands upon HSBP2%D buffer injection. Kinetic evaluation of the sensorgrams was carried out using the Qdat 4.0 program; best fittings were obtained with 2 sites and indicated in red (reported KD values refer to dissociation constants of the highest affinity site).
Figure 2 SPR analysis of the interaction between putative inhibitors of Bcl-2 anti-apoptotic members and Bcl-2 protein. Bcl-2 was immobilized via amine coupling onto a COOH5 sensorchip; Bcl-2 family inhibitors (analytes) were injected at a flow rate = 100 μL/min, at the following concentrations. 0-30 s: 0.625 μM; 31-60 s: 1.25 μM; 61-90 s: 2.5 μM; 91-120 s: 5 μM; 121-150 s: 10 μM; 151-165 s: 20 μM. The increase in Response Units (RU) relative to baseline indicates complex formation between the immobilized Bcl-2 ligand and the analytes upon Bcl-2 family inhibitors injection. The decrease in RU after 165 s indicates analyte dissociation from the immobilized Bcl-2 upon buffer injection. Full fittings with 2 sites are indicated in red. The fitted KD values are the following.

In the next data set the test system is U937 xenografts. The data set can be described thus: In vivo tumor growth, U937 xenografts. Set-up: species or system athymic CD1 nude mice. Here is the method:
(§1) All procedures involving mice and their care were authorized and certified by the decree no. 67/97A of the Italian Minister of Health and protocol 2560/97 of the Rome Health Service Unit (ASL RMB). Regina Elena National Cancer Institute approved all the procedures involving animals. 5 x 10^6 U937 (in 50% Matrigel, Corning, NY, USA) or A375 cells were subcutaneously injected in the right flank of 6-8-week-old female immunodeficient athymic CD1 nude mice. IS21 was dissolved in 10% DMSO, 30% PEG400 and 60% NaCl (vehicle). Intraperitoneal treatment of vehicle or IS21 (8 mice for each group) every 24 h started when tumors reached the palpability (6 days for U937 and 7 days for A375 cells). […] Animals were observed daily, weighted two times/week and tumor volume (mm^3) calculated as length × width^2 × π/6. At the end of the treatment the tumors were collected and weighed.
Based on pharmacokinetic analysis, we next evaluated the effect of IS21 on in vivo tumor growth of leukemic and melanoma derived xenografts. To this aim, U937 were injected subcutaneously and treated for two weeks with vehicle or with IS21 (70 mg/kg or 100 mg/kg, 5 days/week).
Figure 9 Analysis in vivo of the effect of IS21 on both leukemia and melanoma models. Analysis of in vivo tumor growth in nude mice injected with (A) U937 and (B) A375 cells and treated with vehicle or with IS21 at the indicated concentrations for (A) two or (B) three weeks. Experiments were repeated twice. * p < 0.05, *** p < 0.0002, **** p < 0.0001.

The next data set has as its system A375 melanoma xenografts. The data set can be described thus: In vivo tumor growth, A375 xenografts. The note with it: i.p. 100 mg/kg, 5 days/week. The procedure:
as §1
In particular, mice injected with A375 melanoma cells were treated with vehicle or with IS21 (100 mg/kg, 5 days/week) for three weeks.
Experiments were repeated
426 twice. 4 animals/group. * p < 0.01, ** p < 0.001, *** p < 0.0001. (B) Representative images of
427 explanted tumors of two independent experiments. The scale bar represents 1 cm. (C) Analysis of
(D) Anal ysis of mice weight after the in vivo ex periment perform ed
430 as reported in (A). ( A,C, D) D ata are report ed as mean ± SD of two indep endent ex periments. […]

Sequence of Bcl-2 (P10415 whole entry): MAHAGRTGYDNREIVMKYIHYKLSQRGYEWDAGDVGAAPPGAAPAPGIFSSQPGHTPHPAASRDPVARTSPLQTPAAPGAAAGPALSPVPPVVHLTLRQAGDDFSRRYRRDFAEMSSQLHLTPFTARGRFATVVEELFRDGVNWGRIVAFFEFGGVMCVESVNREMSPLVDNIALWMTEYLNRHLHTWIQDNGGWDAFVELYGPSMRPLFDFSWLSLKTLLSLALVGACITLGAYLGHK

In turn, `CCCCCOc1ccc(C2/C(=C(\O)c3ccc4c(c3)CC(C)O4)C(=O)C(=O)N2c2nnc(SCc3ccc(Cl)cc3)s2)cc1OCC` (stereo not drawn) [IS21] yielded a Kd at Bcl-2 of 190 ± 70 nM. In addition, on Bcl-2 (selectivity index from KD), the “selectivity for Bcl-2 than for Bcl-xL” value is “about 2.7 times” and the “selectivity for Bcl-2 than for Mcl-1” value is around 6 times. Besides, in the data set on U937 xenografts (U937, 100 mg/kg until day 22, compared with control or 70 mg/kg), the “delay of tumor growth” value was “about 11 days”. For the same molecule, the “growth of U937 xenografts” value in the data set on U937 xenografts (i.p. 70 mg/kg or 100 mg/kg, 5 days/week, two weeks) is “reduced significantly”. In addition, the “day after cell injection from which U937 xenograft growth is significantly reduced” value with U937 xenografts (i.p. 70 mg/kg, 5 days/week, two weeks) was determined as 19 days. Also, the “day after cell injection from which U937 xenograft growth is significantly reduced” value in the data set on U937 xenografts (i.p. 100 mg/kg, 5 days/week, two weeks) was found to be 16 days. Besides, in the data set with A375 melanoma xenografts (three weeks), the “day after cell injection from which A375 tumor growth is reduced” value stood at 22 days and the “in vivo tumor growth of A375” value is “strongly reduced”. Moreover, the “tolerability of treatment (weight loss, diet consumption, postural and behavioral changes)” value in the data set with A375 melanoma xenografts (tumor-bearing nude mice) is “highly tolerated”.

In turn, `CCCCOc1ccc(C2/C(=C(\O)c3ccc4c(c3)CC(C)O4)C(=O)C(=O)N2c2nnc(SCc3ccc(Cl)cc3)s2)cc1OCC` (stereo not drawn) [IS20] gave a Kd on Bcl-2 of 320 ± 90 nM. Besides, at Bcl-2 (selectivity index from KD), the “selectivity for Bcl-2 than for Mcl-1” value is given as 12 times.
